# Counter-ions that a name gives are not always drawn. The source made the active and inactive calls.
# How the values were obtained:
# [1] = target: T1, Leucine aminopeptidase (Plasmodium falciparum 3D7, UniProt Q8IL11); test: P. falciparum M17LAP inhibitors, primary screen, biochemical, fluorogenic H-Leu-NHMec substrate, 1536-well (AID 1619); format: functional
# T1 sequence (Q8IL11 whole entry): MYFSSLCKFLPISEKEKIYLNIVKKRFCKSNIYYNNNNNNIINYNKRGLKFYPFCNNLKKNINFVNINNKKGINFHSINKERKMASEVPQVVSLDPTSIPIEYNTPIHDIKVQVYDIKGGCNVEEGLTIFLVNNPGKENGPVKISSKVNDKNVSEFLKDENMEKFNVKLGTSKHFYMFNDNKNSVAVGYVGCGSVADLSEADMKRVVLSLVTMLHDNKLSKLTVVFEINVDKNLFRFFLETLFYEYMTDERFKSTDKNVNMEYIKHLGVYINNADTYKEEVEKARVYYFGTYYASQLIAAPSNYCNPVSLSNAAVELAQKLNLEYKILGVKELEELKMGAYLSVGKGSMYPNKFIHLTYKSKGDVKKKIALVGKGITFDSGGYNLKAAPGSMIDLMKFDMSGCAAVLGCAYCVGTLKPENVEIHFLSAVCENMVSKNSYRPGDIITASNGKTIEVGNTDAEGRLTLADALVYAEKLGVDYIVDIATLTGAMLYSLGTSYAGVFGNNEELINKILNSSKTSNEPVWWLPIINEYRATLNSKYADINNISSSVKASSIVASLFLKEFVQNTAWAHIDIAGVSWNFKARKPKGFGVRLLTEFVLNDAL
# [2] = tested on: Vero; test: cells; format: functional; settings: Chlorocebus sabaeus
# [3] = tested on: Vero; test: cells; format: functional, cell-based; settings: Chlorocebus sabaeus
# [4] = tested on: Streptococcus; test: GAS UMAA2166 growth inhibition – luminescence, BacTiterGlo, counter-screen for streptokinase expression inhibitor project, dose response (AID 1915); format: functional, organism-based;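 further: potency for reduction of bacterial viability or growth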
# [5] = tested on: Streptococcus sp. 'group A'; test: Streptococcus pyogenes SK(-)GAS viability under kanamycin – luminescence, BacTiterGlo, confirmation, counter-screen for streptokinase expression inhibitor project, dose response (AID 1900); format: functional, organism-based
# [6] = target: T2, Streptokinase A (Streptococcus pyogenes serotype M1, UniProt P10520); test: viability-normalized secreted streptokinase activity reduction – plasminogen activation absorbance, OD405, dose response (AID 1914); format: functional, Streptococcus pyogenes M1 GAS;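 further: secreted streptokinase activity via plasminogen activation per viability signal from cell pellet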
# T2 sequence (P10520 whole entry): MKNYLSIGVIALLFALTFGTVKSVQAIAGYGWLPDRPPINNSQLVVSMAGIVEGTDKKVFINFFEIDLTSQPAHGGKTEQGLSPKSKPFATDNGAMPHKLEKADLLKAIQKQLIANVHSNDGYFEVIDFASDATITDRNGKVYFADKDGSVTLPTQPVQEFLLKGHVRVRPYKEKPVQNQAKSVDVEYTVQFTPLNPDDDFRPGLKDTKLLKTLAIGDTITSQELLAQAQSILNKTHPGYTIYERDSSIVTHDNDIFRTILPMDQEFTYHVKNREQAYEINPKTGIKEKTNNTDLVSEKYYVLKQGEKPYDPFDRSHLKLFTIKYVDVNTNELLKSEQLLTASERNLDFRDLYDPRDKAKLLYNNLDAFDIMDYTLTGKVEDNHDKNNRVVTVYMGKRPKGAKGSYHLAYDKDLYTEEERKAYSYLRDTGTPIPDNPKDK
# [7] = A cytotoxicity screen of small molecule inhibitors of the PhoP region in Salmonella typhi identified in the primary screen. [Related pubchem assays: 1850, 1864, 1985 ]; format: functional
# [8] = cells
# [9] = target: T3, Oxysterols receptor LXR-beta (Homo sapiens, UniProt P55055); test: LXR agonists, Gal4 luciferase reporter, dose response, counter-screen for ssDAF-12 agonist project, cell-based, luminescence, HEK293, S. stercoralis campaign (AID 720737); format: functional; settings: read-out: IC50 (the source's name)
# T3 sequence (P55055 whole entry): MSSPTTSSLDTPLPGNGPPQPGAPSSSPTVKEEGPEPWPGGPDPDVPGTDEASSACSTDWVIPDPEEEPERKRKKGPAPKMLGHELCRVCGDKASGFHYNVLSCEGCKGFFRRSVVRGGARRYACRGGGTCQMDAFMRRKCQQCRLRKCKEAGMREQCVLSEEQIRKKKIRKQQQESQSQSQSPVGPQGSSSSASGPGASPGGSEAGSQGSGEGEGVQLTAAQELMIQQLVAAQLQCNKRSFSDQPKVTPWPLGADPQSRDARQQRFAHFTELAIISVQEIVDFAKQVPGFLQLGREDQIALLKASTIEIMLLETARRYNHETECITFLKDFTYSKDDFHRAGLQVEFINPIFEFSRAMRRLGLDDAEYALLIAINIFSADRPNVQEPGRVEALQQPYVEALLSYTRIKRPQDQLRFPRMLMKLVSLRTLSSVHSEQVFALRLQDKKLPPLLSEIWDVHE
# [10] = Luminescence-based cell-based high throughput dose response assay to identify activators of the DAF-12 from the parasite S. stercoralis (ssDAF-12).; format: functional
# [11] = viability of uninfected HEp-2 cells – cell-based, HTS, cytotoxicity control for RSV inhibitor project, dose response (AID 2410); format: functional; settings: human respiratory syncytial virus
# [12] = target: Glyceraldehyde-3-phosphate dehydrogenase (Homo sapiens, UniProt P04406)
# [13] = Luminescence Cell-Based Dose Retest to Confirm Inhibitors of Cancer Stem Cells. [Related pubchem assays (depositor defined):AID2717, AID2721]; format: functional; settings: Homo sapiens
# [14] = HPDE-C7 pancreatic duct cell viability loss – fluorescence, HTS (AID 430); format: functional, cell-based; settings: Homo sapiens
# [15] = viability loss of HPDE-C7K cells – cell-based, fluorescence, HTS, primary screen (AID 431); format: functional; settings: Homo sapiens
# [16] = NIH3T3 cell viability loss – ATP luminescence, mouse fibroblasts, counter-screen, dose response (AID 2010); format: functional, cell-based;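 further: cells exposed to compound for about 90 hours before reading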
# [17] = Trypanosoma cruzi growth suppression in host cells – NIH3T3 host cells, beta-gal luminescence, confirmation (AID 2044); format: functional, cell-based;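 further: intracellular parasites grown in NIH/3T3 mouse fibroblasts as host cells; luminescent beta-galactosidase reporter signal from transgenic T. cruzi replicating inside host cells; inhibitors lower the luminescence signal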
# [18] = tested on: H4; test: Luminescence Cell-Based Dose Response HTS to Identify Activators of 5'UTR Stem-Loop Driven Prion Protein mRNA Translation in H4 Neuroglioblastoma Cells. [Related pubchem assays: 1829 (Project Summary), 1814 (Primary HTS)]; format: functional; settings: Homo sapiens
# [19] = Luminescence Cell-Based Dose Response HTS to Identify Activators of Luciferase Translation or Activity in H4 […] Cells. [Related pubchem assays: 1829 (Project Summary), 1814 (Primary HTS)]; format: functional
# [20] = target: Cytochrome P450 2C19 (Homo sapiens, UniProt P33261); test: Cytochrome panel assay with activity outcomes. Panel member name: p450-cyp2c19 Compounds with AC50 equal or less than 10 uM are considered active; format: functional; settings: read-out: AC50
# [21] = target: Cytochrome P450 2D6 (Homo sapiens, UniProt P10635);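 further: CYP2D6 member of a cytochrome P450 panel assay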
# [22] = P. falciparum Dd2 growth inhibitors, dose response, SYBR Green, cherry-picked samples (AID 1159567); format: functional, cell-based
# [23] = alpha-synuclein stem-loop luciferase translation blockers – H4 neuroglioma cells, luminescence, confirmation (AID 1988); format: functional, cell-based
# [24] = Luminescence Cell-Based Dose Response HTS to Identify Inhibitors of 5'UTR Stem-Loop Driven Prion Protein mRNA Translation in H4 Neuroglioblastoma Cells. [Related pubchem assays: 1827 (Project Summary), 1813 (Primary HTS)]; format: functional
# [25] = target: T4, DNA repair protein RAD52 homolog (Homo sapiens, UniProt P43351); format: functional, biochemical
# T4 sequence (P43351 whole entry): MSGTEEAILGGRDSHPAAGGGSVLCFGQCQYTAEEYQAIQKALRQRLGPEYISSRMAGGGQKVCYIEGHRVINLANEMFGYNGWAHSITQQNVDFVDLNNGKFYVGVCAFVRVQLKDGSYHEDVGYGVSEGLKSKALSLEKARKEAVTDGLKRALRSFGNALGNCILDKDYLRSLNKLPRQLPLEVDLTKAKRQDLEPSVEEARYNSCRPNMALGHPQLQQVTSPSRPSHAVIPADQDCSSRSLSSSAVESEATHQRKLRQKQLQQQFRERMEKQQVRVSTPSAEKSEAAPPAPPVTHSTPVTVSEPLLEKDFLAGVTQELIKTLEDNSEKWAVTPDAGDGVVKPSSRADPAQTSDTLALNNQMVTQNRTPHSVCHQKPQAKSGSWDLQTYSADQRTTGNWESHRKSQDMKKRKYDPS
# [26] = luciferase reporter signal suppression in cells – H4 neuroglioma cells, luminescence, dose response (AID 1990); format: functional, cell-based
# [27] = viability of HCT116 lacking mutant beta-catenin – cell-based, human colon tumor, dose response (AID 1045); format: functional;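 further: HCT116 colon tumor cells with beta catenin knocked out; cells exposed to compound for 60 hours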
# [28] = viability of PTEN-deleted HCT116 cells – cell-based, HCT116 PTEN knockout, dose response (AID 1047); format: functional;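 further: HCT116 colon tumor cells with PTEN knocked out; cells exposed to compound for 60 hours before readout; potency for loss of cell viability measured by luminescence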
# Sequence of Cytochrome P450 2C19 (P33261 whole entry): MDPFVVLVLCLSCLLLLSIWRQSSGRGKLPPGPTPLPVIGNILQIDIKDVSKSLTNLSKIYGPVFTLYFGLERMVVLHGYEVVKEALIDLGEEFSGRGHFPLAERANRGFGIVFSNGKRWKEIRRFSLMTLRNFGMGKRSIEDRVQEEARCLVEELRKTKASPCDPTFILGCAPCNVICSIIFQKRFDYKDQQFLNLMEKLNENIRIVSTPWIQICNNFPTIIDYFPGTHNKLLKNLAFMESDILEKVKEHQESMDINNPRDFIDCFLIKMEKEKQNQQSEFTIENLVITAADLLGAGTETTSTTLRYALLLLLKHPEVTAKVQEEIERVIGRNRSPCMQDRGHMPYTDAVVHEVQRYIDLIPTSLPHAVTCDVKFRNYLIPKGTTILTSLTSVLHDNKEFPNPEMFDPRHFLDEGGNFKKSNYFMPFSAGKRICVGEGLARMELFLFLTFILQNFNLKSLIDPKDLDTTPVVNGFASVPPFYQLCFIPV
# Sequence of Glyceraldehyde-3-phosphate dehydrogenase (P04406 whole entry): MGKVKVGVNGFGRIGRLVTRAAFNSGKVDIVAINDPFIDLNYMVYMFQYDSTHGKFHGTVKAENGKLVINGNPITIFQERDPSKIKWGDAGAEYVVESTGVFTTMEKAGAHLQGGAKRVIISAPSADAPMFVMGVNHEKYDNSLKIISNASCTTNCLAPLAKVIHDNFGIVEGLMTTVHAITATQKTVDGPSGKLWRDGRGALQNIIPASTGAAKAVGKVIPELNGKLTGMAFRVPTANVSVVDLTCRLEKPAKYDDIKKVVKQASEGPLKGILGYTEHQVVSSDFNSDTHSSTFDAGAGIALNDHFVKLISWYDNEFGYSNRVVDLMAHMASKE
# Sequence of Cytochrome P450 2D6 (P10635 whole entry): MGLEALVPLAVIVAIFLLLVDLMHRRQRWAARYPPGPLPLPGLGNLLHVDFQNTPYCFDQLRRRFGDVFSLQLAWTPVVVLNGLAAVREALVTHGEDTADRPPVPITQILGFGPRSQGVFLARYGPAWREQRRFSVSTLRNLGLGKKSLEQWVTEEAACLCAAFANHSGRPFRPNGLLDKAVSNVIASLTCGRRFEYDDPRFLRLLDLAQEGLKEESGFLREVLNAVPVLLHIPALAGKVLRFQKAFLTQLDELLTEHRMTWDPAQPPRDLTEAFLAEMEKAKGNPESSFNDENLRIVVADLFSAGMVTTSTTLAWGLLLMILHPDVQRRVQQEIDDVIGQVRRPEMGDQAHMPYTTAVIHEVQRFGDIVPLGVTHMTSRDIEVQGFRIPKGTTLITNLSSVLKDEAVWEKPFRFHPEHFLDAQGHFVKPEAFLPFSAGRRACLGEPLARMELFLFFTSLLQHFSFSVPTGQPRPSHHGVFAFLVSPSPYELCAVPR
structure (smiles),measurement,setting,value
CC(=O)/C(C#N)=C1\NC(=O)C(Cc2ccccc2Cl)S1 (centres undefined),IC50,[1],26.6 µM (active)
same,CC50,[2],18.9 µM (active)
same,IC50,[3],2.83 µM (active)
O=C(Cc1cccs1)NNC(=S)NC(=O)c1ccccc1,EC50,[4],16.9 µM (active)
same,IC50,[1],30 µM (active)
same,EC50,[5],4.36 µM (active)
same,EC50,[6],> 150 µM (not active)
COc1ccc(N(CC(=O)N2c3ccccc3CC2C)S(=O)(=O)c2c(C)noc2C)cc1 (centres undefined),EC50,[7],> 50 µM (active)
COc1ccc(C(=O)N/C(=C/c2cccs2)c2nc3ccccc3[nH]2)cc1OC,IC50,[8],22.6 µM (active)
O=C(CCNC(=O)c1ccccc1)N=Nc1c(O)[nH]c2ccccc12,EC50,[9],> 67.5 µM (inactive)
same,IC50,[10],> 67.5 µM (inactive)
Cn1c(C(=O)NCc2ccccc2)cc2oc3ccccc3c21,CC50,[2],> 25 µM (active)
same,IC50,[8],7.04 µM (active)
same,IC50,[3],1.87 µM (active)
same,CC50,[11],28.9 µM (active)
Cc1c(NC(=O)CN2C(=O)NC3(CCCCC3C)C2=O)cccc1[N+](=O)[O-] (centres undefined),IC50,[8],11.6 µM (active)
O=C(O)c1cc(N2C(=O)C3C4c5ccccc5C(c5ccccc54)C3C2=O)ccc1O (centres undefined),IC50,[12],> 100 µM (not active)
N#Cc1cc2ccccc2nc1SCc1ccccn1,EC50,[9],> 67.5 µM (inactive)
same,IC50,[10],> 67.5 µM (inactive)
N#CC1=C(SCC(=O)c2ccc(Cl)cc2)N=C2CCCC(O)=C2C1c1ccco1 (centres undefined),AC50,[13],2.64 µM (active)
same,EC50,[14],7.64 µM (active)
same,EC50,[15],7.7 µM (active)
CSc1ncccc1C(=O)Nc1nc(C(C)(C)C)cs1,IC50,[8],4.75 µM (active)
same,CC50,[11],49.6 µM (active)
CC(=O)/C(C#N)=C1\NC(=O)C(Cc2ccccc2C)S1 (centres undefined),CC50,[2],> 25 µM (active)
same,IC50,[8],2.54 µM (active)
same,IC50,[3],5.5 µM (active)
same,CC50,[11],5.95 µM (active)
CCOc1ccc(N(Cc2cc3cc(OC)ccc3nc2O)S(C)(=O)=O)cc1,EC50,[14],> 20 µM (not active)
same,EC50,[15],> 20 µM (not active)
COc1cccc(NC(=O)N2CCCC(C(=O)Nc3ccccc3OC)C2)c1 (centres undefined),EC50,[7],> 50 µM (active)
Oc1cc(O)c2sc3nc(-c4cccnc4)cc(C(F)(F)F)c3c2n1,IC50,[1],58.2 µM (active)
COC(=O)c1ccccc1NC(=O)c1ccnn1C,EC50,[9],> 67.5 µM (inactive)
same,IC50,[10],> 67.5 µM (inactive)
CCc1ccc2cc3c(cc2n1)C(=O)c1ccccc1-3,EC50,[9],> 67.5 µM (inactive)
same,IC50,[10],> 67.5 µM (inactive)
CN1c2ccsc2/C(=N/Nc2ccc(F)cc2)CS1(=O)=O,EC50,[16],> 60 µM (not active)
same,EC50,[17],3.22 µM (active)
same,EC50,[9],> 67.5 µM (inactive)
same,IC50,[10],> 67.5 µM (inactive)
same,EC50,[18],49.1 µM (active)
same,EC50,[19],54.8 µM (active)
CCc1nnc(NS(=O)(=O)c2ccc(/N=C/c3c(C)nn(-c4ccc(C)cc4)c3O)cc2)s1,IC50,[1],8.11 µM (active)
same,AC50,[20],5.01 µM (inconclusive)
same,AC50,[21],5.62 µM (inconclusive)
O=C(C1CCOCC1)N1[C@H](CO)[C@@H](c2ccccc2)C12CN(Cc1cccc(Cl)c1)C2,AC50,[22],5.41 µM (active)
C[C@@H]1CN([C@@H](C)CO)C(=O)c2c(c3ccccc3n2C)-c2ccccc2CO[C@@H]1CN(C)C(=O)[C@H](C)c1ccccc1,AC50,[22],3.29 µM (active)
CCS(=O)(=O)N1CCCCN2[C@H](CO)[C@@H](c3ccc(-c4cccc(C#N)c4)cc3)[C@@H]2C1,AC50,[22],9.04 µM (active)
Cc1cc(C)c(CSc2ncnc3[nH]cnc23)c(C)c1,EC50,[7],> 50 µM (active)
CCCCC[C@H](O)/C=C/[C@H]1C=CC(=O)[C@@H]1C/C=C\CCCC(=O)O [PROSTAGLANDIN A2],EC50,[14],> 20 µM (not active)
same,EC50,[15],> 20 µM (not active)
CSc1ccc2c(c1)N(CCC1CCCCN1C)c1ccccc1S2 (centres undefined) [THIORIDAZINE HYDROCHLORIDE],EC50,[23],> 120 µM (not active)
same,EC50,[24],> 60 µM (not active)
same,AC50,[25],13.7 µM (active)
same,EC50,[26],> 120 µM (not active)
same,EC50,[14],8.18 µM (active)
same,EC50,[27],9.28 µM (active)
same,EC50,[15],3.43 µM (active)
same,EC50,[28],11.1 µM (active)

# Reference: ChEMBL document CHEMBL1201862, “PubChem BioAssay data set” (2004)
